Data on seven cell lines can be found in the supplement of paper PMC10307832.

Experiment in all cases: relative viability (nuclei count vs DMSO), 5 days (fraction); higher = more cells survive
Compound in one assay: COc1cc(Nc2ncc(F)c(Nc3ccc4c(n3)NC(=O)C(C)(C)O4)n2)cc(OC)c1OC [R406]
The method, boiled down: (§1)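 Viability was read as treated-well nuclei divided by vehicle-well nuclei, using the median across plates. Lung cancer cell lines in 1536-well plates were kept overnight at 37 °C, pinned with five √10-spaced library-drug doses, and after 5 days were Hoechst-stained, imaged at 4× and counted in MetaXpress. Plates passed only with control CV below 25% and at least one doubling.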

Compound in the next assay: O=C(/C=C/c1cccnc1)NCCCCC1CCN(C(=O)c2ccccc2)CC1 [Daporinad]
The method, boiled down:
as §1

Compound in the assay “R406 + Trametinib”: COc1cc(Nc2ncc(F)c(Nc3ccc4c(n3)NC(=O)C(C)(C)O4)n2)cc(OC)c1OC [R406] + CC(=O)Nc1cccc(-n2c(=O)n(C3CC3)c(=O)c3c(Nc4ccc(I)cc4F)n(C)c(=O)c(C)c32)c1 [Trametinib] (partner 0.02 µM)
Put shortly: (§2)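 Medians of duplicate plates are given as relative viability. That measure is the nuclei count in treated wells divided by the count in vehicle wells. Counts were taken on 4× images of lung cancer cell lines in 1536-well plates, 5 days after pin-tool dosing the day after seeding with one drug alone or a fixed anchor-drug dose plus five library-drug doses (not always all listed) in √10 steps.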

Compound in the assay “Daporinad + Navitoclax”: O=C(/C=C/c1cccnc1)NCCCCC1CCN(C(=O)c2ccccc2)CC1 [Daporinad] + CC1(C)CCC(c2ccc(Cl)cc2)=C(CN2CCN(c3ccc(C(=O)NS(=O)(=O)c4ccc(N[C@H](CCN5CCOCC5)CSc5ccccc5)c(S(=O)(=O)C(F)(F)F)c4)cc3)CC2)C1 [Navitoclax] (partner 0.5 µM)
The method, boiled down:
as §2

In the case of PC-3 [JPC-3], the relative viability with R406 (0.08 µM) came out at 1.04; with R406 (0.253 µM) it was 1.17; in the assay with R406 (0.8 µM) it was 1.04; with R406 (2.53 µM) it was 0.819; with R406 (8 µM), 0.647; with Daporinad (0.0005 µM), 1.02. The relative viability worked out at 1.1 with Daporinad (0.001581 µM); 1.14 with Daporinad (0.005 µM); 1.12 with Daporinad (0.01581 µM); 0.801 with R406 + Trametinib (first compound 0.08 µM); 0.738 with R406 + Trametinib (first compound 0.253 µM); 0.81 in the assay with R406 + Trametinib (first compound 0.8 µM). Moreover, the relative viability with R406 + Trametinib (first compound 2.53 µM) was 0.669; in the assay with R406 + Trametinib (first compound 8 µM), 0.475; in the assay with Daporinad + Navitoclax (first compound 0.0005 µM), 0.763; with Daporinad + Navitoclax (first compound 0.001581 µM), 0.796; with Daporinad + Navitoclax (first compound 0.005 µM) it was 0.827; in the assay with Daporinad + Navitoclax (first compound 0.01581 µM), 0.789.

Regarding PC-14, the relative viability was 0.968 in the assay with R406 (0.08 µM); 1.18 with R406 (0.253 µM); 1.09 with R406 (0.8 µM); 0.759 in the assay with R406 (2.53 µM); 0.601 in the assay with R406 (8 µM); 0.951 with Daporinad (0.0005 µM). The relative viability stood at 1.08 in the assay with Daporinad (0.001581 µM); 1.08 with Daporinad (0.005 µM); 0.871 with Daporinad (0.01581 µM); 0.777 with R406 + Trametinib (first compound 0.08 µM); 0.898 with R406 + Trametinib (first compound 0.253 µM); 0.857 with R406 + Trametinib (first compound 0.8 µM). Further, the relative viability worked out at 0.628 with R406 + Trametinib (first compound 2.53 µM); 0.11 in the assay with R406 + Trametinib (first compound 8 µM); 1.05 with Daporinad + Navitoclax (first compound 0.0005 µM); 1 in the assay with Daporinad + Navitoclax (first compound 0.001581 µM); 0.875 with Daporinad + Navitoclax (first compound 0.005 µM); 0.721 with Daporinad + Navitoclax (first compound 0.01581 µM).

For RERF-LC-KJ, the relative viability in the assay with R406 (0.08 µM) came out at 0.98; with R406 (0.253 µM) it was 1.06; with R406 (0.8 µM), 1.06; with R406 (2.53 µM), 0.781; in the assay with R406 (8 µM) it was 0.827; in the assay with Daporinad (0.0005 µM), 0.923. The relative viability in the assay with Daporinad (0.001581 µM) turned out to be 1.04; with Daporinad (0.005 µM), 1.07; with Daporinad (0.01581 µM), 1.02; with R406 + Trametinib (first compound 0.08 µM), 0.833; with R406 + Trametinib (first compound 0.253 µM), 0.918; in the assay with R406 + Trametinib (first compound 0.8 µM), 1. The relative viability amounted to 0.753 in the assay with R406 + Trametinib (first compound 2.53 µM); 0.715 with R406 + Trametinib (first compound 8 µM); 1.04 in the assay with Daporinad + Navitoclax (first compound 0.0005 µM); 0.984 in the assay with Daporinad + Navitoclax (first compound 0.001581 µM); 1.01 in the assay with Daporinad + Navitoclax (first compound 0.005 µM); 1.18 with Daporinad + Navitoclax (first compound 0.01581 µM).

Turning to SK-LU-1, the relative viability was determined as 0.955 with R406 (0.08 µM); 1.16 in the assay with R406 (0.253 µM); 1.15 with R406 (0.8 µM); 0.513 with R406 (2.53 µM); 0.386 with R406 (8 µM); 1.06 in the assay with Daporinad (0.0005 µM). Moreover, the relative viability with Daporinad (0.001581 µM) is 1.11; in the assay with Daporinad (0.005 µM), 1.19; in the assay with Daporinad (0.01581 µM), 1.12; with R406 + Trametinib (first compound 0.08 µM), 0.535; with R406 + Trametinib (first compound 0.253 µM) it was 0.531; with R406 + Trametinib (first compound 0.8 µM), 0.55. The relative viability came to 0.157 with R406 + Trametinib (first compound 2.53 µM); 0.195 with R406 + Trametinib (first compound 8 µM); 0.901 with Daporinad + Navitoclax (first compound 0.0005 µM); 0.646 in the assay with Daporinad + Navitoclax (first compound 0.001581 µM); 0.672 with Daporinad + Navitoclax (first compound 0.005 µM); 1.1 in the assay with Daporinad + Navitoclax (first compound 0.01581 µM).

On to SK-MES-1, for which the relative viability amounted to 0.989 in the assay with R406 (0.08 µM); 1.05 in the assay with R406 (0.253 µM); 1.06 with R406 (0.8 µM); 0.648 in the assay with R406 (2.53 µM); 0.322 in the assay with R406 (8 µM); 0.978 with Daporinad (0.0005 µM). Further, the relative viability with Daporinad (0.001581 µM) worked out at 1.05; in the assay with Daporinad (0.005 µM), 1.12; with Daporinad (0.01581 µM), 1.03; with R406 + Trametinib (first compound 0.08 µM), 0.561; with R406 + Trametinib (first compound 0.253 µM), 0.531; with R406 + Trametinib (first compound 0.8 µM), 0.553. Further, the relative viability in the assay with R406 + Trametinib (first compound 2.53 µM) turned out to be 0.304; with R406 + Trametinib (first compound 8 µM), 0.218; with Daporinad + Navitoclax (first compound 0.0005 µM) it was 1.27; with Daporinad + Navitoclax (first compound 0.001581 µM), 1.16; in the assay with Daporinad + Navitoclax (first compound 0.005 µM) it was 1.31; in the assay with Daporinad + Navitoclax (first compound 0.01581 µM), 0.852.

In the case of SW 1573, the relative viability with R406 (0.08 µM) amounted to 1.02; with R406 (0.253 µM) it was 1.11; with R406 (0.8 µM), 1.11; with R406 (2.53 µM) it was 0.803; with R406 (8 µM), 0.543; in the assay with Daporinad (0.0005 µM), 1.02. Moreover, the relative viability with Daporinad (0.001581 µM) was 1.15; with Daporinad (0.005 µM) it was 0.929; with Daporinad (0.01581 µM), 0.678; with R406 + Trametinib (first compound 0.08 µM) it was 0.548; with R406 + Trametinib (first compound 0.253 µM) it was 0.614; with R406 + Trametinib (first compound 0.8 µM), 0.628. Also, the relative viability in the assay with R406 + Trametinib (first compound 2.53 µM) came out at 0.443; with R406 + Trametinib (first compound 8 µM), 0.193; in the assay with Daporinad + Navitoclax (first compound 0.0005 µM), 0.897; in the assay with Daporinad + Navitoclax (first compound 0.001581 µM) it was 0.991; with Daporinad + Navitoclax (first compound 0.005 µM), 0.755; in the assay with Daporinad + Navitoclax (first compound 0.01581 µM) it was 0.457.

As for UMC-11, the relative viability in the assay with R406 (0.08 µM) came to 0.964; with R406 (0.253 µM), 1.15; with R406 (0.8 µM) it was 1.16; with R406 (2.53 µM) it was 0.861; in the assay with R406 (8 µM), 0.481; in the assay with Daporinad (0.0005 µM), 0.963. Besides, the relative viability with Daporinad (0.001581 µM) worked out at 1.07; in the assay with Daporinad (0.005 µM), 1.03; with Daporinad (0.01581 µM) it was 1.05; with R406 + Trametinib (first compound 0.08 µM), 0.724; in the assay with R406 + Trametinib (first compound 0.253 µM) it was 0.959; in the assay with R406 + Trametinib (first compound 0.8 µM) it was 0.776. The relative viability came to 0.874 with R406 + Trametinib (first compound 2.53 µM); 0.482 with R406 + Trametinib (first compound 8 µM); 0.335 in the assay with Daporinad + Navitoclax (first compound 0.0005 µM); 0.33 in the assay with Daporinad + Navitoclax (first compound 0.001581 µM); 0.377 with Daporinad + Navitoclax (first compound 0.005 µM); 0.288 with Daporinad + Navitoclax (first compound 0.01581 µM).
